Laboratory results taken from PMC5509001, “Structure Modeling of Human Tyrosyl-DNA Phosphodiesterase 1 and Screening for Its Inhibitors” (Acta Naturae, 2017).

Molecular target: T1, recombinant human Tdp1 (tyrosyl-DNA phosphodiesterase 1) (Homo sapiens, UniProt Q9NUW8)
T1 construct: recombinant from plasmid pET 16B Tdp1 in Escherichia coli
Assay: real-time fluorescence biosensor (FAM-oligonucleotide-BHQ1) cleavage
Assay type: biochemical
Excerpt: real-time fluorescence biosensor (FAM-oligonucleotide-BHQ1) cleavage on recombinant human Tdp1 (tyrosyl-DNA phosphodiesterase 1)

T1 sequence (Q9NUW8 whole entry): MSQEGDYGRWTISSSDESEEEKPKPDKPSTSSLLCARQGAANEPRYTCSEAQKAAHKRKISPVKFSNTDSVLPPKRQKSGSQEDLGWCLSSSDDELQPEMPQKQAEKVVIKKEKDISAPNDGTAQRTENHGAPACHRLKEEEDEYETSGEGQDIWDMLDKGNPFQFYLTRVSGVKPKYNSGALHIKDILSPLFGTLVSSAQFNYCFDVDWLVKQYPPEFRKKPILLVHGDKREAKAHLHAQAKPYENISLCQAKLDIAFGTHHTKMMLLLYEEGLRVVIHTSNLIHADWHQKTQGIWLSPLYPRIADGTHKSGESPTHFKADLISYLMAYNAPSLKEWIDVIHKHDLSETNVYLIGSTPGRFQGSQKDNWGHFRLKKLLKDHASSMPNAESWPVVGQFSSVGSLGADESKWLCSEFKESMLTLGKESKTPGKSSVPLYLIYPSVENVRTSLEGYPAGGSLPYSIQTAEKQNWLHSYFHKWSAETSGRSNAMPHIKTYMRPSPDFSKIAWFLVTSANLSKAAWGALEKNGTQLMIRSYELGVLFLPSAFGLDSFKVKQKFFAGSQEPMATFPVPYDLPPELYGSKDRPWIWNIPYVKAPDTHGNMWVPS

IC50 [µM] | Structure (SMILES)
83 ± 24 | O=S(=O)(O)CCSc1nc2ccccc2s1 [STK370528]
686 ± 14 | O=S(=O)(O)CCCSc1nc2ccccc2[nH]1 [STK376552]
